Laboratory results published in US20230330058A1, “SENOLYTIC COMPOUNDS AND COMPOSITIONS” (NUCHIDO LIMITED, priority 2020, published 2023).
Entries after “also recorded” stand apart in the source; their conditions may differ. Structures can show the parent of a compound that is named as a salt.

Experiments:
[1] = test system: platelets; conditions: originally intended as anti-cancer drugs; cited from earlier work
[2] = test system: senescent Human Dermal Fibroblasts (HDFs) versus non-senescent ('young') HDFs; test: Senescence-specific assay: co-culture of labelled senescent and non-senescent cells, automated counting before and after 72 h incubation; format: cell-based; conditions: for selective senolytic activity: single agent, killing senescent cells over non-senescent cells; for increase of the senolytic effect of navitoclax: uncoupler together with navitoclax, efficacy at lower navitoclax concentrations (FIGS. 11, 12; senescent and proliferating cells); for senolytic activity in galactose media: glycolysis suppressed (FIGS. 5, 13); for selective senolytic activity at concentrations reached in humans: concentrations already known to be reached safely in humans, achievable blood plasma concentrations (FIG. 3)
Protocol: We developed a senescence-specific assay, employing automated counting of differentially labelled senescent and non-senescent cells in co-culture, before and after 72h incubation with each molecule or molecule combination.
Human Dermal Fibroblasts (HDFs) expressing pSLIEW (Green), or mCherry (Red) are used in the assay. The cells expressing pSLIEW (Green) are subjected to 20 Gy X-irradiation to induce senescence.
The test molecule is added to the co-culture, and the number of green and red cells are counted before and after 72 h incubation. A selective senolytic would be expected to diminish the proportion of green-expressing senescent cells, while leaving the number of red-expressing young cells unchanged or increased due to replication during the incubation period.
The experiments were carried out in 96-well plates, and the cells were imaged using fluorescent microscopy. The images were analysed with ICY software for automated cell counting, and both numbers of labelled cells and their other visible characteristics such as size were recorded.

[3] = test system: aging in animals; conditions: cited from earlier work
[4] = test system: senescent cells; conditions: cited from earlier work

SMILES	selective senolytic activity [2]	further results
Cc1c(-c2ccc(N3CCc4cccc(C(=O)Nc5nc6ccccc6s5)c4C3)nc2C(=O)O)cnn1CC12CC3CC(CC(C3)C1)C2 [A-1331852, 3-(1-(((3r,5r,7r)-adamantan-1-yl)methyl)-5-methyl-1H-pyrazol-4-yl)-6-(8-(benzo[d]thiazol-2-ylcarbamoyl)-3,4-dihydroisoquinolin-2(1H)-yl)picolinic acid]		side-effect profile [1]: thrombocytopaenia
C[C@@H]1CC[C@H]2[C@@H](C)C(=O)O[C@@H]3O[C@@]4(C)CC[C@@H]1[C@]32OO4 [Artemisinin]	showed selective senolytic activity	
CN1C(=O)C(C(=O)Nc2nncs2)c2cc3occc3cc21 (stereo not drawn) [BML-288]	showed selective senolytic activity	
CC(C)(C)c1cc(O)c(C(C)(C)C)cc1O [BTBHQ, 2,5-di-tert-butylhydroquinone]	showed selective senolytic activity	
N#CC(C#N)=NNc1cccc(Cl)c1 [CCCP, Carbonyl cyanide m-chlorophenyl hydrazone]		increase of the senolytic effect of navitoclax [2]: increases the senolytic effect of navitoclax
O=[N+]([O-])c1ccc(O)c([N+](=O)[O-])c1 [DNP, 2,4-Dinitrophenol]	selective senolytic activity	
O=C(O[C@@H]1Cc2c(O)cc(O)cc2O[C@@H]1c1cc(O)c(O)c(O)c1)c1cc(O)c(O)c(O)c1 [EGCG, epigallocatechin gallate]	showed selective senolytic activity	
N#CC(C#N)=NNc1ccc(OC(F)(F)F)cc1 [FCCP, Carbonyl cyanide-p-trifluoromethoxyphenylhydrazone]	selective senolytic activity	increase of the senolytic effect of navitoclax [2]: increases the senolytic effect of navitoclax
CN1CCc2ccccc2Cc2[nH]c3ccccc3c2CC1 [LE300, 6,7,8,9,14,15-hexahydro-7-methyl-5H-indolo[3,2-f][3]benzazecine]	showed selective senolytic activity	
O=C(O)CCCCC1CCSS1 (stereo not drawn) [alpha lipoic acid]	showed selective senolytic activity	
O=c1cc(-c2ccc(O)cc2)oc2cc(O)cc(O)c12 [apigenin]	showed selective senolytic activity	
OCCN1CCN(CCCN2c3ccccc3Sc3ccc(C(F)(F)F)cc32)CC1 [fluphenazine dihydrochloride]		selective senolytic activity ([2]; dihydrochloride): showed selective senolytic activity; selective senolytic activity ([2]; listed as fluphenazine hydrochloride, dihydrochloride): selective senolytic activity
C=CCc1ccc(O)c(-c2ccc(O)c(CC=C)c2)c1 [honokiol]	showed selective senolytic activity	
C=CCc1ccc(O)c(-c2cc(CC=C)ccc2O)c1 [magnolol]	showed selective senolytic activity	
CN(C)C(=N)N=C(N)N [metformin]		effect on aging in animals [3]: can delay aging in animals; senolytic activity in galactose media [2]: senolytic at physiological doses if glycolysis is suppressed; also recorded: senolytic when glycolysis is suppressed; also recorded: displays senolytic activity
CC1(C)CCC(c2ccc(Cl)cc2)=C(CN2CCN(c3ccc(C(=O)NS(=O)(=O)c4ccc(N[C@H](CCN5CCOCC5)CSc5ccccc5)c(S(=O)(=O)C(F)(F)F)c4)cc3)CC2)C1 [navitoclax]		senolytic agent in animal studies [4]: inducing apoptosis in senescent cells, but less in non-senescent cells; side-effect profile [1]: thrombocytopaenia
O=C(Nc1ccc([N+](=O)[O-])cc1Cl)c1cc(Cl)ccc1O [niclosamide]	showed selective senolytic activity	selective senolytic activity at concentrations reached in humans [2]: selective senolytic activity; selective senolytic activity at concentrations reached in humans ([2]; listed as Niclosamide): selectively senolytic at concentrations that are already known to be reached safely in humans
NC(=O)c1cccnc1 [nicotinamide]	showed selective senolytic activity	
CC(=O)Oc1ccccc1C(=O)Nc1ncc([N+](=O)[O-])s1 [nitazoxanide]		senolytic activity in galactose media [2]: selective senolytic activity
O=c1c(O)c(-c2ccc(O)c(O)c2)oc2cc(O)cc(O)c12 [quercetin]	showed selective senolytic activity	
Oc1ccc(C=Cc2cc(O)cc(O)c2)cc1 [resveratrol]	showed selective senolytic activity	
